Here are results for nine compounds from patent publication US20140079632A1, “ACTIVITY-BASED PROBES FOR THE UROKINASE P[…]” (UNIVERSITEIT ANTWERPEN, priority 2011, published 2014).

What all share (type): biochemical
One assay deals with T1, tPA (recombinant) (Homo sapiens, UniProt P00750).
T1 construct: purchased Nodia
Put plainly: Selectivity: tPA inhibition, substrate Biophen CS-05(88). To be noted: for IC50: 15 min preincubation, Tris buffer pH 8.3, 1.25 mM substrate. The protocol: (§1) The substrate and human enzyme were obtained from Nodia. The reaction was monitored at 405 nm, and the initial rate was determined between 0 and 0.25 absorbance units in 20 min. […] A 50 mM Tris buffer, pH 8.8, was used. From each inhibitor concentration, 5 μL was added, obtaining a final concentration from 0 to 250 μM in a total volume of 0.2 mL. Activity measurements were routinely performed in duplicate. […] IC50 values were obtained by fitting the data with the four-parameter logistics equation using Grafit 5.
(§2) The IC50 values for plasmin (from human plasma, Sigma), tPA (recombinant, Nodia), thrombin (from human plasma, Sigma), and FXa were determined in the same way as for uPA.
(§3) For tPA and thrombin, Tris buffer, pH 8.3, was used, for FXa, Tris buffer, pH 8.3, for plasmin, Tris buffer, pH 7.4, was used.

For assay [1], the target named is T2, thrombin (from human plasma) (Homo sapiens, UniProt P00734).
T2 construct: thrombin (from human plasma, Sigma); purchased Sigma; host or cells: human plasma
In words: Selectivity: thrombin inhibition, substrate Biophen CS-21(66). The conditions noted are these: 15 min preincubation; Tris buffer pH 8.3; 580 μM substrate. The protocol:
as §1, §2, §3

For assay [2], the target named is T3, uPA (Homo sapiens, UniProt P00749).
T3 construct: purchased Nodia
In words: uPA inhibition: in vitro evaluation, IC50 with chromogenic substrate Biophen CS-61(44). The conditions noted are these: 15 min preincubation at 37° C.; Tris buffer pH 8.8; 250 μM substrate. The protocol:
Enzymatic activity was measured at 37° C. in a Spectramax 340 (Molecular Devices) microtiter plate reader using the chromogenic substrate Biophen CS-61(44) (LpyroGlu-Gly L-Arg-p-NA.HCl), with a Km of 80 μM.
The substrate and human enzyme were obtained from Nodia. The reaction was monitored at 405 nm, and the initial rate was determined between 0 and 0.25 absorbance units in 20 min. The reaction mixture contained 250 μM substrate and approximately 1 mU of enzyme in 145 μL of buffer in a final volume of 200 μL. A 50 mM Tris buffer, pH 8.8, was used. From each inhibitor concentration, 5 μL was added, obtaining a final concentration from 0 to 250 μM in a total volume of 0.2 mL. Activity measurements were routinely performed in duplicate. […] IC50 values were obtained by fitting the data with the four-parameter logistics equation using Grafit 5.
where s=slope factor, v=rate, I0=inhibitor concentration, and range=the fitted uninhibited value minus the background. The equation assumes the y falls with increasing x.
(§4) Inhibitor stock solutions were prepared in DMSO and stored at −20° C. Because the compounds described in this paper completely inactivate uPA following pseudofirst-order kinetics, the IC50 value is inversely correlated with the second-order rate constant of inactivation. For a simple pseudofirst-order inactivation process, the activity after incubation with inhibitor (vi) varies with the inhibitor concentration (i), as described in the following equation: […]

For assay [3], the target named is T3, uPA. In words: uPA inactivation kinetics from progress curves (kobs versus inhibitor concentration, kapp). To be noted: 250 μM substrate, 37° C. The protocol: as §4
where vo is the activity in absence of inhibitor, k is the second-order rate constant of inactivation, and t is the time. The inactivation rate constant was determined from the time course of inhibition.
The inhibitor was mixed with the substrate (250 μM final concentration), and the buffer solution with the enzyme was added at the time zero. The inhibitor concentrations were chosen to obtain total inhibition of the enzyme within 20 min. The progress curves show the absorbance of p-nitroanilide produced as a function of time. Initially, no inhibitor is bound to the enzyme, and the tangent to the progress curve (dA/dt) is proportional to the concentration of the free enzyme. The concentration of free enzyme decreases over time due to the kinetics of inhibitor binding, as described above. Progress curves were recorded in pseudofirst-order conditions ([I]0>>[E]0) and with less than 10% conversion of the substrate during the entire time course. In these conditions, dA/dt decreases exponentially with time. The progress curves were fitted with the integrated rate equation to yield a value for kobs, a pseudofirst-order rate constant
At=v0[1−e^−k^obs^t]/kobs+A0
where At=absorbance at time t, A0=absorbance at time zero, and v0=uninhibited initial rate.
The apparent second-order rate constant (kapp) was calculated from the slope of the linear part of the plot of kobs versus the inhibitor concentration ([I]0). In case of competition between the inhibitor and the substrate, kapp is smaller than the “real” second order rate constant k discussed above because a certain fraction of the enzyme is present as an enzyme-substrate complex. kapp depends on the substrate concentration used in the experiment, as described by Lambeir et al.^40 For most final compounds, the kobs versus [I]0 plot was not linear, but could be fitted with a hyperbolic function: kobs=k2[I]0/(K1+[I]0) (two step mechanism). Where K1 is the dissociation constant of the reversible enzyme-inhibitor complex and k2 is the first-order rate constant associated with irreversible modification of the enzyme. A kapp could be calculated as k2/K1.

The target in assay [4] is T4, plasmin (from human plasma) (Homo sapiens, UniProt P00747).
T4 construct: purchased Sigma; host or cells: human plasma
In words: Selectivity: plasmin inhibition, substrate Biophen CS-21(66). The conditions noted are these: 15 min preincubation; Tris buffer pH 7.4; 580 μM substrate. The protocol:
as §1, §2, §3

Another assay concerns the target FXa (Homo sapiens, UniProt P00742). In words: Selectivity: FXa inhibition, substrate Biophen CS-11(32). To be noted: for FXa % (I) @ 250: at 250 (μM); for IC50: 15 min preincubation, Tris buffer pH 8.3, 522 μM substrate.
The mark [5] stands for this setting: asterisked: compound showed a two-step mechanism, kapp calculated as k2/K1.
[6] abbreviates: apparent second-order rate constant from slope of kobs versus [I]0, no asterisk.

Chain of FXa (P00742 235-488 limits assumed): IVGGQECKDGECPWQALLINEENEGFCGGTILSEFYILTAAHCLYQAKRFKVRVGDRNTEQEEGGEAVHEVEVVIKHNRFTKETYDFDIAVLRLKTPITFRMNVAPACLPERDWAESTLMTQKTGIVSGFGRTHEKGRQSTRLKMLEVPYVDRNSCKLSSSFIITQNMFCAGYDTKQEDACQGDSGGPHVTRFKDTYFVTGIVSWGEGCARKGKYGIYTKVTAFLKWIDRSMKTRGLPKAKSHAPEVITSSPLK
Chain of FXa (P00742 41-179 partner limits assumed): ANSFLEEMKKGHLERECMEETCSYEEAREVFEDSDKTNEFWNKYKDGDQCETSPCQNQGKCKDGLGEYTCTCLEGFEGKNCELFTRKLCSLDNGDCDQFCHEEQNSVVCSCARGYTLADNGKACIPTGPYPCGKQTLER
T1 sequence (P00750 36-562, species assumed): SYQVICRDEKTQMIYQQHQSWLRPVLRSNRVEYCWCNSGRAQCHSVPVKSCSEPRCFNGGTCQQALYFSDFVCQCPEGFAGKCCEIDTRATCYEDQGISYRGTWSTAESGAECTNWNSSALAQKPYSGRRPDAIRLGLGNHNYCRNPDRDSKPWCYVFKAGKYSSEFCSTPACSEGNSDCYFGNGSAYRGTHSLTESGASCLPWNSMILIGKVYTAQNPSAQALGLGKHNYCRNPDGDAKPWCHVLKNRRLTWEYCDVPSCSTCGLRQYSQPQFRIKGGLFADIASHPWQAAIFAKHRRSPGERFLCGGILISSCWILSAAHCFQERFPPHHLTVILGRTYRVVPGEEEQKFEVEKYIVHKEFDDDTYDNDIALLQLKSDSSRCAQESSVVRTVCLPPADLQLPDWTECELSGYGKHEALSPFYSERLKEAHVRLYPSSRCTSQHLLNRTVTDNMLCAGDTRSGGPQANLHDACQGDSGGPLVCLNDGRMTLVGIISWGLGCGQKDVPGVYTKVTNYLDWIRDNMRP
T4 sequence (P00747 581-810 limits assumed): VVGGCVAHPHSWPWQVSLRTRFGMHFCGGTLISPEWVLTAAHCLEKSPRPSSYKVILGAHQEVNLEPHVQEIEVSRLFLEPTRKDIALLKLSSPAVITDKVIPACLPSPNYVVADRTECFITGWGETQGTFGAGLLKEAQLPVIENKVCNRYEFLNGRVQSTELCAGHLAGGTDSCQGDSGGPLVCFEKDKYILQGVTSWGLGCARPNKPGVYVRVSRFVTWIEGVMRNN
T4 sequence (P00747 97-580 partner limits assumed): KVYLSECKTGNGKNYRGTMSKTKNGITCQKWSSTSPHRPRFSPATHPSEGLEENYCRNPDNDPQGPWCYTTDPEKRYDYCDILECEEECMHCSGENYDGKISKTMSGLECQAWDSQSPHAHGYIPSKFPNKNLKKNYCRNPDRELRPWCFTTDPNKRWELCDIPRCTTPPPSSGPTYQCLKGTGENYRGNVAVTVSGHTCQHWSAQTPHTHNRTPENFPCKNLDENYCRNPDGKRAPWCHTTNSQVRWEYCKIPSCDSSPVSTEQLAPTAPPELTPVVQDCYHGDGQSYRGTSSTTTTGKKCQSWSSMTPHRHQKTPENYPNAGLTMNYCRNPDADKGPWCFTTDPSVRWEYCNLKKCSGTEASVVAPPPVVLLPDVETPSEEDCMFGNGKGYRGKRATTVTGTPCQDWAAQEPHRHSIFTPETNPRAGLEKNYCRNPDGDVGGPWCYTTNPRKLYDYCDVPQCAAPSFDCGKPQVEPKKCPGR

Broadly, the IC50 is the concentration at which inhibition is half-maximal. For the compound `C#CCOCCOCCOC(=O)NC(Cc1ccc(NC(=N)N)cc1)P(=O)(Oc1ccccc1)Oc1ccccc1.O=C(O)C(F)(F)F` (stereo not drawn) [Intermediate 56, 2-(2-(prop-2-ynyloxy)ethoxy)ethyl 1-(diphenoxyphosphoryl)-2-(4-guanidinophenyl)ethylcarbamate 2,2,2-trifluoroacetate], the IC50 is 65 ± 9 µM on tPA (recombinant), 20 ± 3 µM in assay [1], 0.0085 ± 0.0012 µM on uPA [2] and 7.8 ± 0.6 µM in assay [4]. In addition, the “uPA: kapp” value on uPA [3] (setting [5]) is 12 × 10^3 ± 5 × 10^3 * M^−1 s^−1. On FXa, the “FXa % (I) @ 250” value turned out to be 58% @ 250.
With `CC1=CC(C)=[N+]2C1=C(CCCCCCCn1cc(CCCOC(=O)NC(Cc3ccc(NC(=N)N)cc3)P(=O)(Oc3ccccc3)Oc3ccccc3)nn1)c1c(C)cc(C)n1[B-]2(F)F.O=C(O)C(F)(F)F` (stereo not drawn) [Final compound 6, 10-(7-(4-(3-(((1-(diphenoxyphosphoryl)-2-(4-guanidinophenyl)ethyl)carbamoyl)oxy)propyl)-1-1,2,3-triazol-1-yl)heptyl)-5,5-difluoro-1,3,7,9-tetramethyl-5H-dipyrrolo[1,2-c:2′,1′-f][1,3,2]diazaborinin-4-ium-5-uide 2,2,2-trifluoroacetate], the “tPA % I @ 250” value on tPA (recombinant) (at 250 (μM)) is 19% I @ 250. In addition, the IC50 was around 125 µM in assay [1], 0.0467 ± 0.0015 µM at uPA [2] and 0.674 ± 0.123 µM in assay [4]. Moreover, the “uPA: kapp” value on uPA [3] (setting [5]) was 12.2 × 10^2 ± 0.5 × 10^2 * M^−1 s^−1. Also, the “FXa % (I) @ 250” value at FXa is on record as 19% I @ 250 ^.
For `CCN(CC)c1ccc2c(-c3ccccc3C(=O)N3CCN(C(=O)CCCCCCCn4cc(CCCOC(=O)NC(Cc5ccc(NC(=N)N)cc5)P(=O)(Oc5ccccc5)Oc5ccccc5)nn4)CC3)c3ccc(=[N+](CC)CC)cc-3oc2c1.O=C(O)C(F)(F)F.[Cl-]` (stereo not drawn) [Final compound 4, 2,2,2-trifluoroacetic acid, N-(6-(diethylamino)-9-(2-(4-(8-(4-(3-(((1-(diphenoxyphosphoryl)-2-(4-guanidinophenyl)ethyl)carbamoyl)oxy)propyl)-1H-1,2,3-triazol-1-yl)octanoyl)piperazine-1-carbonyl)phenyl)-3H-xanthen-3-ylidene)-N-ethylethanaminium chloride], the IC50 turned out to be 8 ± 1 µM at tPA (recombinant); 3.5 ± 0.8 µM in assay [1]; 0.025 ± 0.007 µM on uPA [2]; 4.6 ± 2.3 µM in assay [4]; 65 ± 14 µM on FXa. Besides, the “uPA: kapp” value at uPA [3] (setting [6]) stood at 4900 ± 90 M⁻¹ s⁻¹.
Take `C#CCCCOC(=O)NC(Cc1ccc(NC(=N)N)cc1)P(=O)(Oc1ccccc1)Oc1ccccc1.O=C(O)C(F)(F)F` (stereo not drawn) [Intermediate 58, pent-4-ynyl 1-(diphenoxyphosphoryl)-2-(4-guanidinophenyl)ethylcarbamate 2,2,2-trifluoroacetate]: the IC50 at tPA (recombinant) was determined as 29 ± 2 µM; in assay [1], 12.2 ± 0.3 µM; against uPA [2], 0.008 ± 0.0005 µM; in assay [4], 3.4 ± 0.4 µM. At uPA [3] (setting [5]), the “uPA: kapp” value is on record as 30 × 10^3 ± 9 × 10^3 * M^−1 s^−1. For the same compound, at FXa, the “FXa % (I) @ 250” value stood at 50% @ 250.
Take `O=C(O)C(F)(F)F.[N-]=[N+]=NCCOCCOCCOC(=O)NC(Cc1ccc(NC(=N)N)cc1)P(=O)(Oc1ccccc1)Oc1ccccc1` (stereo not drawn) [Intermediate 61, 2-(2-(2-azidoethoxy)ethoxy)ethyl 1-(diphenoxyphosphoryl)-2-(4-guanidinophenyl)ethylcarbamate 2,2,2-trifluoroacetate]: the IC50 in assay [1] came to 13 µM; against uPA [2] it was 0.015 ± 0.002 µM; in assay [4], 5.7 ± 0.6 µM. The “uPA: kapp” value on uPA [3] (setting [5]) is given as 10 × 10^3 ± 4 × 10^3 * M^−1 s^−1. For the same compound, on FXa, the “FXa % (I) @ 250” value turned out to be 51% @ 250.
On to `CCN(CC)c1ccc2c(-c3ccccc3C(=O)N3CCN(C(=O)CCCCCCCn4cc(COCCOCCOCCOC(=O)NC(Cc5ccc(NC(=N)N)cc5)P(=O)(Oc5ccccc5)Oc5ccccc5)nn4)CC3)c3ccc(=[N+](CC)CC)cc-3oc2c1` (stereo not drawn) [Final compound 3, 2,2,2-trifluoroacetic acid, N-(6-(diethylamino)-9-(2-(4-(8-(4-(14-(diphenoxyphosphoryl)-15-(4-guanidinophenyl)-12-oxo-2,5,8,11-tetraoxa-13-azapentadecyl)-1H-1,2,3-triazol-1-yl)octanoyl)piperazine-1-carbonyl)phenyl)-3H-xanthen-3-ylidene)-N-ethylethanaminium chloride], for which the IC50 was 42 ± 5 µM at tPA (recombinant); 13.8 ± 1.3 µM in assay [1]; 0.03 ± 0.006 µM against uPA [2]; 11 ± 4 µM in assay [4]; 39 ± 22 µM against FXa. Moreover, the “uPA: kapp” value at uPA [3] (setting [6]) is 2600 ± 200 M⁻¹ s⁻¹.
Turning to `N=C(N)Nc1ccc(CC(NC(=O)OCCCc2cn(CCOCCOCCOCCNC(=O)CCCC[C@@H]3SC[C@@H]4NC(=O)N[C@@H]43)nn2)P(=O)(Oc2ccccc2)Oc2ccccc2)cc1.O=C(O)C(F)(F)F` (stereo partly drawn) [Final compound 7, 3-(1-(13-oxo-17-((3aS,4S,6aR)-2-oxohexahydro-1H-thieno[3,4-d]imidazol-4-yl)-3,6,9-trioxa-12-azaheptadecyl)-1H-1,2,3-triazol-4-yl)propyl (1-(diphenoxyphosphoryl)-2-(4-guanidinophenyl)ethyl)carbamate 2,2,2-trifluoroacetate], the IC50 at tPA (recombinant) worked out at 58 ± 6 µM; in assay [1] it was 14.1 ± 0.3 µM; against uPA [2] it was 0.0156 ± 0.001 µM; in assay [4], 4.7 ± 0.1 µM. The “uPA: kapp” value on uPA [3] (setting [5]) was 86 × 10^2 ± 10 × 10^2 * M^−1 s^−1. Moreover, at FXa, the “FXa % (I) @ 250” value is 73% I @ 250 ^.
For “2-((1E,3E,5E)-5-(1-(6-((2-(4-(3-(((1-(diphenoxyphosphoryl)-2-(4-guanidino phenyl)ethyl)carbamoyl)oxy)propyl)-1H-1,2,3-triazol-1-yl)ethyl)amino)-6-oxohexyl)-3,3-dimethyl indolin-2-ylidene)penta-1,3-dien-1-yl)-1,3,3-trimethyl-3H-indol-1-ium [Final compound 9]”, the IC50 in assay [1] was above 2.5 µM; on uPA [2], 0.0589 ± 0.0017 µM; in assay [4], above 2.5 µM. For the same compound, at uPA [3] (setting [6]), the “uPA: kapp” value turned out to be 1600 ± 100 M⁻¹ s⁻¹.
Regarding `O=C(O)C(F)(F)F.[N-]=[N+]=NCCOCCOCCOCCOC(=O)NC(Cc1ccc(NC(=N)N)cc1)P(=O)(Oc1ccccc1)Oc1ccccc1` (stereo not drawn) [Intermediate 62, 2-(2-(2-(2-azidoethoxy)ethoxy)ethoxy)ethyl 1-(diphenoxyphosphoryl)-2-(4-guanidinophenyl)ethylcarbamate 2,2,2-trifluoroacetate], the IC50 on tPA (recombinant) was found to be 70 ± 11 µM; in assay [1], 29 ± 5 µM; at uPA [2] it was 0.015 ± 0.002 µM; in assay [4], 9 ± 0.7 µM. The “uPA: kapp” value on uPA [3] (setting [5]) is 9 × 10^3 ± 4 × 10^3 * M^−1 s^−1. In addition, the “FXa % (I) @ 250” value at FXa turned out to be 48% @ 250.
